Experimental data from US12466846B2, “Siloxane derivatives of amino acids having surface-active properties” (AdvanSix Resins & Chemicals LLC, priority 2022, dated 2025).

Assay: Critical micelle concentration and minimum surface tension from surface tension versus concentration in water, Wilhelmy plate method
Assay type: physicochemical
Conditions: for plateau value of minimum surface tension that can be reached: in water, Wilhelmy plate, 23° C.; for interfacial / surfactant activity (in words): judged from the plateau minimum surface tension and CMC in water
From the text: These properties may be measured and described by various methods. One method by which surfactants may be described is by the molecule's critical micelle concentration (CMC). CMC may be defined as the concentration of a surfactant at which micelles form, and above which all additional surfactant is incorporated into micelles.
As surfactant concentration increases, surface tension decreases. Once the surface is completely overlaid with surfactant molecules, micelles begin to form. This point represents the CMC, as well as the minimum surface tension. Further addition of surfactant will not further affect the surface tension. CMC may therefore be measured by observing the change in surface tension as a function of surfactant concentration. One such method for measuring this value is the Wilhemy plate method. A Wilhelmy plate is usually a thin iridium-platinum plate attached to a balance by a wire and placed perpendicularly to the air-liquid interface. The balance is used to measure the force exerted on the plate by wetting. This value is then used to calculate the surface tension (γ) according to Equation 1: γ=F/l cos θ: Equation 1 wherein I is equal to the wetted perimeter (2w+2d, in which w and d are the plate thickness and width, respectively) and cos θ, the contact angle between the liquid and the plate, is assumed to be […] in the absence of an extant literature value.
Nuclear magnetic resonance (NMR) spectroscopy was performed on a Bruker 500 MHz spectrometer. The critical micelle concentration (CMC) was determined by the Wilhelmy plate method at 23° C. with a tensiometer (DCAT 11, DataPhysics Instruments GmbH) equipped with a Pt—Ir plate. Dynamic surface tension was determined with a bubble pressure tensiometer (Krüss BP100, Krüss GmbH), at 23° C. Contact angle was determined with the optical contact angle goniometer (OCA 15 Pro, DataPhysics GmbH) equipped with a digital camera.

Row | SMILES | plateau value of minimum surface tension that can be reached | interfacial / surfactant activity (in words)
1 | C[N+](C)(CCCCCC(=O)NCCC[Si](O[Si](C)(C)C)(O[Si](C)(C)C)O[Si](C)(C)C)Cc1ccccc1 [Surfactant 1, N-benzyl-6-((3-(1,1,1,5,5,5-hexamethyl-3-((trimethylsilyl)oxy)trisiloxan-3-yl)propyl)amino)-N,N-dimethyl-6-oxohexan-1-aminium bromide] | around 20.67 mN/m | outstanding interfacial activity
2 | CCOC(=O)C[N+](C)(C)CCCCCC(=O)NCCC[Si](O[Si](C)(C)C)(O[Si](C)(C)C)O[Si](C)(C)C [Surfactant 2, N-(2-ethoxy-2-oxoethyl)-6-((3-(1,1,1,5,5,5-hexamethyl-3-((trimethylsilyl)oxy)trisiloxan-3-yl)propyl)amino)-N,N-dimethyl-6-oxohexan-1-aminium bromide] | around 20.36 mN/m | outstanding interfacial activity
3 | C=CC[N+](C)(C)CCCCCC(=O)NCCC[Si](O[Si](C)(C)C)(O[Si](C)(C)C)O[Si](C)(C)C [Surfactant 3, N-allyl-6-((3-(1,1,1,5,5,5-hexamethyl-3-((trimethylsilyl)oxy)trisiloxan-3-yl)propyl)amino)-N,N-dimethyl-6-oxohexan-1-aminium iodide] | about 20.67 mN/m | outstanding interfacial activity
4 | C#CC[N+](C)(C)CCCCCC(=O)NCCC[Si](O[Si](C)(C)C)(O[Si](C)(C)C)O[Si](C)(C)C [Surfactant 4, 6-((3-(1,1,1,5,5,5-hexamethyl-3-((trimethylsilyl)oxy)trisiloxan-3-yl)propyl)amino)-N,N-dimethyl-6-oxo-N-(prop-2-yn-1-yl)hexan-1-aminium bromide] | about 20.54 mN/m | outstanding interfacial activity
5 | COCCOCC[N+](C)(C)CCCCCC(=O)NCCC[Si](O[Si](C)(C)C)(O[Si](C)(C)C)O[Si](C)(C)C [Surfactant 5, 6-((3-(1,1,1,5,5,5-hexamethyl-3-((trimethylsilyl)oxy)trisiloxan-3-yl)propyl)amino)-N-(2-(2-methoxyethoxy)ethyl)-N,N-dimethyl-6-oxohexan-1-aminium bromide] | about 20.40 mN/m | outstanding interfacial activity
6 | CCOP(=O)(CCC[N+](C)(C)CCCCCC(=O)NCCC[Si](O[Si](C)(C)C)(O[Si](C)(C)C)O[Si](C)(C)C)OCC [Surfactant 6, N-(3-(diethoxyphosphoryl)propyl)-6-((3-(1,1,1,5,5,5-hexamethyl-3-((trimethylsilyl)oxy)trisiloxan-3-yl)propyl)amino)-N,N-dimethyl-6-oxohexan-1-aminium bromide] | about 20.48 mN/m | outstanding interfacial activity
7 | C[N+](C)(CCCO)CCCCCC(=O)NCCC[Si](O[Si](C)(C)C)(O[Si](C)(C)C)O[Si](C)(C)C [Surfactant 7, 6-((3-(1,1,1,5,5,5-hexamethyl-3-((trimethylsilyl)oxy)trisiloxan-3-yl)propyl)amino)-N-(3-hydroxypropyl)-N,N-dimethyl-6-oxohexan-1-aminium iodide] | about 20.61 mN/m | outstanding interfacial activity
8 | C[N+](C)(CCO)CCCCCC(=O)NCCC[Si](O[Si](C)(C)C)(O[Si](C)(C)C)O[Si](C)(C)C [Surfactant 8, 6-((3-(1,1,1,5,5,5-hexamethyl-3-((trimethylsilyl)oxy)trisiloxan-3-yl)propyl)amino)-N-(2-hydroxyethyl)-N,N-dimethyl-6-oxohexan-1-aminium iodide] | about 20.41 mN/m | outstanding interfacial activity
9 | C[N+](C)(CCCCCC(=O)O)CCCCCC(=O)NCCC[Si](O[Si](C)(C)C)(O[Si](C)(C)C)O[Si](C)(C)C [Surfactant 9a, N-(5-carboxypentyl)-6-((3-(1,1,1,5,5,5-hexamethyl-3-((trimethylsilyl)oxy)trisiloxan-3-yl)propyl)amino)-N,N-dimethyl-6-oxohexan-1-aminium bromide] | about 20.52 mN/m | 
10 | C[N+](C)(CCCCCC(=O)NCCC[Si](O[Si](C)(C)C)(O[Si](C)(C)C)O[Si](C)(C)C)CC(=O)O [Surfactant 9b, N-(carboxymethyl)-6-((3-(1,1,1,5,5,5-hexamethyl-3-((trimethylsilyl)oxy)trisiloxan-3-yl)propyl)amino)-N,N-dimethyl-6-oxohexan-1-aminium bromide] | about 29.16 mN/m | excellent activity
11 | C[N+](C)(CCCCCC(=O)NCCC[Si](O[Si](C)(C)C)(O[Si](C)(C)C)O[Si](C)(C)C)CCC[N+](C)(C)CCCCCC(=O)NCCC[Si](O[Si](C)(C)C)(O[Si](C)(C)C)O[Si](C)(C)C [Surfactant 10, N^1,N^3-bis(6-((3-(1,1,1,5,5,5-hexamethyl-3-((trimethylsilyl)oxy)trisiloxan-3-yl)propyl)amino)-6-oxohexyl)-N^1,N^1,N^3,N^3-tetramethylpropane-1,3-diaminium dibromide] | about 22.12 mN/m | interfacial activity
